In patent publication US20250283041A1, “METHODS FOR PRODUCING RED BLOOD CELLS” (Albert Einstein College of Medicine, priority 2022, published 2025):

Test system: cells from the A4 clone (hemizygous D816V kit iPSC line)
Assay: Enucleation rate by flow cytometry using DRAQ5 (PSC-RED protocol without SCF and Epo)
Format: cell-based, human
Details: clone A4, 200 nM dasatinib introduced starting at day 35, read at day 41; without dasatinib about 18%
Method: Enucleation: The enucleation rate was measured using the DRAQ5 DNA nuclear stain (ThermoFisher) after exclusion of dead cells with Propidium Iodide. The cells were analyzed with an Aurora flow cytometer (Cytek) flow cytometer, and the flow cytometry data were analyzed with the Flowjo software.
To assess the effect of the D816V kit mutation, control 01 iPSCs were differentiated, and hemizygous clone A4 and homozygous and B34 were randomly selected using the PSC-RED protocol with or without SCF and Epo (FIG. 3A). Dasatinib, which can be used to inhibit the activity of the D816V SCF receptor, was also included in some experiments. Cells were counted once a week, and differentiation was evaluated by flow cytometry, methyl-cellulose assays, and microscopy after Romanowsky staining.
The rate of enucleation was determined by flow cytometry using DRAQ5, a cell permeant DNA dye. Since no cytokines are necessary after day 17 in the PSC-RED protocol in the absence of SCF and Epo, the only trigger left to induce terminal differentiation is the removal of dexamethasone and introduction of RU-4816, a glucocorticoid antagonist (FIG. 2A).

Structure (SMILES): Cc1nc(Nc2ncc(C(=O)Nc3c(C)cccc3Cl)s2)cc(N2CCN(CCO)CC2)n1 [dasatinib]
- enucleation rate: about 25%
